The source of these data is patent US20250059182A1, “SOS1 INHIBITORS” (Mirati Therapeutics, Inc., priority 2021, published 2025).

Read-outs that look alike come from different tables or passages of the source.

Assay [1] relates to pERK in MKN1 cells. The experiment in a line: pERK inhibition, In-Cell Western (LI-COR Odyssey), MKN1 cells. The assay is classed as cell-based. The note with it: MKN1 or H358 cells (table does not say which), 0.5-1 hour incubation, read-out: IC50 (nM), pERK inhibition. The method in brief: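 MKN1 cells were exposed for about 0.5–1 h at 37 °C to nine 3-fold dilutions starting at 10 µM. Cells were then fixed in formaldehyde, permeabilised with methanol, and immunostained for pERK and GAPDH with near-infrared secondary antibodies. GAPDH-normalised pERK signal relative to vehicle gave % inhibition, from which IC50 was fitted.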

In assay [2] the target is T1, recombinant human SOS1 polypeptide (amino acids 560-1049) (Homo sapiens, UniProt Q07889).
T1 construct: corresponding to amino acids 560-1049, expressed in E. Coli; made in house; host or cells: E. coli
T1 sequence (Q07889 560-1049): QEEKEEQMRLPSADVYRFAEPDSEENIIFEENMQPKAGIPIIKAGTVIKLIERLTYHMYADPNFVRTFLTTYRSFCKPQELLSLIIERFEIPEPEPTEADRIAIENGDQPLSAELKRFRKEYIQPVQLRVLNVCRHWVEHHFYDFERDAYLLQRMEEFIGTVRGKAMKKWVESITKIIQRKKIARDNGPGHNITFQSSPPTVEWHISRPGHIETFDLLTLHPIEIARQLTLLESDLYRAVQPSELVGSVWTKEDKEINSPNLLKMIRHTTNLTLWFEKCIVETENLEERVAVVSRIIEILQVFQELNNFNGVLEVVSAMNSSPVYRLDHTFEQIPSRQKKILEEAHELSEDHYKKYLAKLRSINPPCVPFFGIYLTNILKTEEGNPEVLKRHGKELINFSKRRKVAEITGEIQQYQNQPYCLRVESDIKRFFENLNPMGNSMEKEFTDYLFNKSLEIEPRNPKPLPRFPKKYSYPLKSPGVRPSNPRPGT
The experiment in a line: HTRF displacement assay: inhibition of labeled tracer binding to SOS1. The note with it: Table A, Morrison equation for competitive binding.

Take `Cc1c(C#N)cccc1[C@@H](C)Nc1nnc(C)c2cnc(N3CCN(C(=O)[C@H]4CCCN4C)CC3)cc12` [Example 2-1, 2-methyl-3-((R)-1-((4-methyl-7-(4-(methyl-D-prolyl)piperazin-1-yl)pyrido[3,4-d]pyridazin-1-yl)amino)ethyl)benzonitrile]: the IC50 – broadly, the concentration that inhibits the measured activity by half – in assay [1] (Homo sapiens, MKN-1, Table B) was determined as 551 nM. In addition, in assay [2], the Ki – broadly, the dissociation constant of the complex between target and ligand, obtained from inhibition or displacement – was determined as 0.458 nM.
With `Cc1c(C#N)cccc1[C@@H](C)Nc1nnc(C)c2cnc(N3CCN(C(=O)[C@@H]4CCCN4C)CC3)cc12` [Example 2-2, 2-methyl-3-((R)-1-((4-methyl-7-(4-(methyl-L-prolyl)piperazin-1-yl)pyrido[3,4-d]pyridazin-1-yl)amino)ethyl)benzonitrile], the IC50 in assay [1] (Homo sapiens, MKN-1, Table B) is 456 nM. The Ki in assay [2] stood at 0.845 nM.
`Cc1c(C#N)cccc1[C@@H](C)Nc1nnc(C)c2cnc(N3CCN(C(=O)[C@H]4CCCN4)CC3)cc12` [Example 2-3, 3-((R)-1-((7-(4-(D-prolyl)piperazin-1-yl)-4-methylpyrido[3,4-d]pyridazin-1-yl)amino)ethyl)-2-methylbenzonitrile]: in assay [1] (Homo sapiens, MKN-1, Table B), the IC50 is 656 nM. The Ki in assay [2] was 0.32 nM.
The corresponding values for `Cc1c(C#N)cccc1[C@@H](C)Nc1nnc(C)c2cnc(N3CCN(C(=O)[C@@H]4CCCN4)CC3)cc12` [Example 2-4, 3-((R)-1-((7-(4-(L-prolyl)piperazin-1-yl)-4-methylpyrido[3,4-d]pyridazin-1-yl)amino)ethyl)-2-methylbenzonitrile] are 933 nM and 0.816 nM.
Taken in the same sequence, the figures for `Cc1c(C#N)cccc1[C@@H](C)Nc1nnc(C)c2cnc(N3CCN(C(=O)[C@@H]4CCN(C)C4)CC3)cc12` [Example 2-5, 2-methyl-3-((R)-1-((4-methyl-7-(4-((R)-1-methylpyrrolidine-3-carbonyl)piperazin-1-yl)pyrido[3,4-d]pyridazin-1-yl)amino)ethyl)benzonitrile] were 1050 nM and 0.743 nM.
Taken in the same sequence, the figures for `Cc1c(C#N)cccc1[C@@H](C)Nc1nnc(C)c2cnc(N3CCN(C(=O)[C@H]4CCN(C)C4)CC3)cc12` [Example 2-6, 2-methyl-3-((R)-1-((4-methyl-7-(4-((S)-1-methylpyrrolidine-3-carbonyl)piperazin-1-yl)pyrido[3,4-d]pyridazin-1-yl)amino)ethyl)benzonitrile] were 869 nM and 0.481 nM.
As for `Cc1c(C#N)cccc1[C@@H](C)Nc1nnc(C)c2cnc(N3CCN(C(=O)[C@@H]4CCCCN4C)CC3)cc12` [Example 2-7, 2-methyl-3-((R)-1-((4-methyl-7-(4-((S)-1-methylpiperidine-2-carbonyl)piperazin-1-yl)pyrido[3,4-d]pyridazin-1-yl)amino)ethyl)benzonitrile], in assay [1] (Homo sapiens, MKN-1, Table B), the IC50 worked out at 139 nM. For the same compound, in assay [2], the inhibition constant Ki is 0.545 nM.
Regarding `Cc1c(C#N)cccc1[C@@H](C)Nc1nnc(C)c2cnc(N3CCN(C(=O)[C@H]4CCCCN4C)CC3)cc12` [Example 2-8, 2-methyl-3-((R)-1-((4-methyl-7-(4-((R)-1-methylpiperidine-2-carbonyl)piperazin-1-yl)pyrido[3,4-d]pyridazin-1-yl)amino)ethyl)benzonitrile], the 50% inhibitory concentration (IC50) in assay [1] (Homo sapiens, MKN-1, Table B) amounted to 211 nM. Moreover, the inhibition constant Ki in assay [2] was 0.67 nM.
Taken in the same sequence, the figures for `Cc1c(C#N)cccc1[C@@H](C)Nc1nnc(C)c2cnc(-c3ccc(CN(C)C)cc3)cc12` [Example 3-1, (R)-3-(1-((7-(4-((dimethylamino)methyl)phenyl)-4-methylpyrido[3,4-d]pyridazin-1-yl)amino)ethyl)-2-methylbenzonitrile] were 192 nM and 6.11 nM.
Taken in the same sequence, the figures for `Cc1c(C#N)cccc1[C@@H](C)Nc1nnc(C)c2cnc(C3=CCN(C)CC3)cc12` [Example 3-2, (R)-2-methyl-3-(1-((4-methyl-7-(1-methyl-1,2,3,6-tetrahydropyridin-4-yl)pyrido[3,4-d]pyridazin-1-yl)amino)ethyl)benzonitrile] were 124 nM and 11.5 nM.
`CCN1CCN(c2cc3c(N[C@H](C)c4cccc(C#N)c4C)nnc(C)c3cc2F)CC1` [Example 4-1, (R)-3-(1-((7-(4-ethylpiperazin-1-yl)-6-fluoro-4-methylphthalazin-1-yl)amino)ethyl)-2-methylbenzonitrile]: the IC50 in assay [1] (Homo sapiens, MKN-1, Table B) came to 82.7 nM. The Ki in assay [2] worked out at 1.73 nM.
The corresponding values for `Cc1c(C#N)cccc1[C@@H](C)Nc1nnc(C)c2cc(F)c(N3CC4(COC4)C3)cc12` [Example 4-2, (R)-3-(1-((6-fluoro-4-methyl-7-(2-oxa-6-azaspiro[3.3]heptan-6-yl)phthalazin-1-yl)amino)ethyl)-2-methylbenzonitrile] are 64 nM and 5.85 nM.
Regarding `Cc1c(C#N)cccc1[C@@H](C)Nc1nnc(C)c2cc(F)c(N(C)C3CCN(C)CC3)cc12` [Example 4-3, (R)-3-(1-((6-fluoro-4-methyl-7-(methyl(1-methylpiperidin-4-yl)amino)phthalazin-1-yl)amino)ethyl)-2-methylbenzonitrile], the half-maximal inhibitory concentration (IC50) in assay [1] (Homo sapiens, MKN-1, Table B) was determined as 150 nM. Also, the Ki in assay [2] is 3.34 nM.
For the compound `Cc1c(C#N)cccc1[C@@H](C)Nc1nnc(C)c2cc(F)c(N3CCC34CN(C)C4)cc12` [Example 4-4, (R)-3-(1-((6-fluoro-4-methyl-7-(6-methyl-1,6-diazaspiro[3.3]heptan-1-yl)phthalazin-1-yl)amino)ethyl)-2-methylbenzonitrile], in assay [1] (Homo sapiens, MKN-1, Table B), the 50% inhibitory concentration (IC50) worked out at 39.6 nM. Moreover, in assay [2], the inhibition constant Ki was found to be 0.892 nM.
Taken in the same sequence, the figures for `Cc1nnc(N[C@H](C)c2cccc(C(F)(F)F)c2F)c2cc(N3CCC34CN(C)C4)c(F)cc12` [Example 4-5, (R)-6-fluoro-N-(1-(2-fluoro-3-(trifluoromethyl)phenyl)ethyl)-4-methyl-7-(6-methyl-1,6-diazaspiro[3.3]heptan-1-yl)phthalazin-1-amine] were 103 nM and 0.585 nM.
Taken in the same sequence, the figures for `Cc1nnc(N[C@H](C)c2cccc(C(F)(F)F)c2F)c2cc(N3CCOCC3)c(F)cc12` [Example 4-6, (R)-6-fluoro-N-(1-(2-fluoro-3-(trifluoromethyl)phenyl)ethyl)-4-methyl-7-morpholinophthalazin-1-amine] were 176 nM and 12.3 nM.
Taken in the same sequence, the figures for `Cc1nnc(N[C@H](C)c2cccc(C(F)(F)F)c2F)c2cc(N3CCN(C)CC3)c(F)cc12` [Example 4-7, (R)-6-fluoro-N-(1-(2-fluoro-3-(trifluoromethyl)phenyl)ethyl)-4-methyl-7-(4-methylpiperazin-1-yl)phthalazin-1-amine] were 110 nM and 1.06 nM.
As for `Cc1c(C#N)cccc1[C@@H](C)Nc1nnc(C)c2cc(F)c(N3CC4(CN(C)C4)C3)cc12` [Example 4-9, (R)-3-(1-((6-fluoro-4-methyl-7-(6-methyl-2,6-diazaspiro[3.3]heptan-2-yl)phthalazin-1-yl)amino)ethyl)-2-methylbenzonitrile], the half-maximal inhibitory concentration (IC50) in assay [1] (Homo sapiens, MKN-1, Table B) amounted to 24.1 nM. The Ki in assay [2] came to 0.343 nM.
Take `Cc1nnc(N[C@H](C)c2cccc(C(F)(F)F)c2F)c2cc(N3CC4(COC4)C3)c(F)cc12` [Example 4-10, (R)-6-fluoro-N-(1-(2-fluoro-3-(trifluoromethyl)phenyl)ethyl)-4-methyl-7-(2-oxa-6-azaspiro[3.3]heptan-6-yl)phthalazin-1-amine]: in assay [1] (Homo sapiens, MKN-1, Table B), the IC50 is 141 nM. Further, the Ki in assay [2] is 2.4 nM.
The corresponding values for `Cc1c(C#N)cccc1[C@@H](C)Nc1nnc(C)c2cc(F)c(N3CCN4CCOC[C@@H]4C3)cc12` [Example 4-11, 3-((R)-1-((6-fluoro-7-((S)-hexahydropyrazino[2,1-c][1,4]oxazin-8(1H)-yl)-4-methylphthalazin-1-yl)amino)ethyl)-2-methylbenzonitrile] are 162 nM and 5.77 nM.
Taken in the same sequence, the figures for `Cc1c(C#N)cccc1[C@@H](C)Nc1nnc(C)c2cc(F)c(N3C[C@@H]4C[C@H]3CO4)cc12` [Example 4-13, 3-((R)-1-((7-((1S,4S)-2-oxa-5-azabicyclo[2.2.1]heptan-5-yl)-6-fluoro-4-methylphthalazin-1-yl)amino)ethyl)-2-methylbenzonitrile] were 165 nM and 16.1 nM.
In the case of `Cc1c(C#N)cccc1[C@@H](C)Nc1nnc(C)c2cc(F)c(N3C[C@@H]4C[C@H]3CN4C)cc12` [Example 4-14, 3-((R)-1-((6-fluoro-4-methyl-7-((1S,4S)-5-methyl-2,5-diazabicyclo[2.2.1]heptan-2-yl)phthalazin-1-yl)amino)ethyl)-2-methylbenzonitrile], the half-inhibitory concentration (IC50) in assay [1] (Table B) was 41.6 nM. Also, the Ki in assay [2] is 1.16 nM.
As to `Cc1c(C#N)cccc1[C@@H](C)Nc1nnc(C)c2cc(F)c(N3C[C@H]4C[C@@H]3CO4)cc12` [Example 4-15, 3-((R)-1-((7-((1R,4R)-2-oxa-5-azabicyclo[2.2.1]heptan-5-yl)-6-fluoro-4-methylphthalazin-1-yl)amino)ethyl)-2-methylbenzonitrile], the IC50 in assay [1] (Homo sapiens, MKN-1, Table B) was 37.8 nM. For the same compound, the inhibition constant (Ki) in assay [2] was 4.66 nM.
